Data as given in patent US8765944B2, “Compounds for the treatment of hepatitis C” (priority 2010, dated 2014).

Test system: HCV pseudoparticles
Assay: HCV pseudoparticle infection assay (luciferase reporter, Huh7 cells)
Assay type: cell-based, HCV (genotype 1b E1 and E2 envelope)
Conditions: Hepatitis C virus, genotype 1b, Huh-7, 48 h, HCV pseudoparticles (genotype 1b), luciferase activity 2 days after infection

SMILES | EC50 (class) | EC50
Cn1cnc(C[C@H](NC(=O)c2ccc(Nc3nc(NC4(c5ccc(Cl)cc5)CC4)nc(OCC(F)(F)F)n3)cc2)C(=O)N[C@]2(C(=O)NS(=O)(=O)C3CCC3)C[C@H]2C2CC2)c1 [Example 8020] | 0.5 to 100 nM | 
Cn1cnc(C[C@H](NC(=O)c2ccc(Nc3nc(NC4(c5ccc(Cl)cc5)CC4)nc(OCC(F)(F)F)n3)cc2)C(=O)N[C@]2(C(=O)NS(=O)(=O)C(C)(C)C)C[C@H]2C2CC2)c1 [Example 8021] | 0.5 to 100 nM | 
CN(C)CC1(S(=O)(=O)NC(=O)c2ccc(Nc3nc(OCC(F)(F)F)nc(N4CCN(S(C)(=O)=O)CC4)n3)cc2)CC1 [Example 8022] | 1000 to 5000 nM | 
CCS(=O)(=O)N1CCN(c2nc(Nc3ccc(C(=O)NS(=O)(=O)C4(CN(C)C)CC4)cc3)nc(OCC(F)(F)F)n2)CC1 [Example 8023] | 1000 to 5000 nM | 
CC(=O)N1CCN(c2nc(Nc3ccc(C(=O)NS(=O)(=O)C4(CN(C)C)CC4)cc3)nc(OCC(F)(F)F)n2)CC1 [Example 8024] | 1000 to 5000 nM | 
CN(C)CC1(S(=O)(=O)NC(=O)c2ccc(Nc3nc(OCC(F)(F)F)nc(N4CCN(S(=O)(=O)C5CC5)CC4)n3)cc2)CC1 [Example 8025] | 1000 to 5000 nM | 
CC(C)S(=O)(=O)N1CCN(c2nc(Nc3ccc(C(=O)NS(=O)(=O)C4(CN(C)C)CC4)cc3)nc(OCC(F)(F)F)n2)CC1 [Example 8026] | 1000 to 5000 nM | 
Cc1ccc(C(=O)N2CCN(c3nc(Nc4ccc(C(=O)NS(=O)(=O)C5(CN(C)C)CC5)cc4)nc(OCC(F)(F)F)n3)CC2)cc1 [Example 8027] | 1000 to 5000 nM | 
CN(C)CC1(S(=O)(=O)NC(=O)c2ccc(Nc3nc(OCC(F)(F)F)nc(N4CCN(C(=O)OC(C)(C)C)CC4)n3)cc2)CC1 [Example 8028] | 1000 to 5000 nM | 17600 nM
CN(C)CC1(S(=O)(=O)NC(=O)c2ccc(Nc3nc(OCC(F)(F)F)nc(N4CCN(C(=O)c5ccccc5F)CC4)n3)cc2)CC1 [Example 8029] | 1000 to 5000 nM | 
CN(C)CC1(S(=O)(=O)NC(=O)c2ccc(Nc3nc(OCC(F)(F)F)nc(N4CCN(S(=O)(=O)c5ccccc5F)CC4)n3)cc2)CC1 [Example 8030] | 1000 to 5000 nM | 
CN(C)CC1(S(=O)(=O)NC(=O)c2ccc(Nc3nc(OCC(F)(F)F)nc(N4CCN(S(=O)(=O)c5ccccc5)CC4)n3)cc2)CC1 [Example 8031] | 1000 to 5000 nM | 
Cc1cccc(S(=O)(=O)N2CCN(c3nc(Nc4ccc(C(=O)NS(=O)(=O)C5(CN(C)C)CC5)cc4)nc(OCC(F)(F)F)n3)CC2)c1 [Example 8032] | 1000 to 5000 nM | 
CN(C)CC1(S(=O)(=O)NC(=O)c2ccc(Nc3nc(OCC(F)(F)F)nc(N4CCN(S(=O)(=O)c5ccccc5Cl)CC4)n3)cc2)CC1 [Example 8033] | 1000 to 5000 nM | 36100 nM
Cc1ccccc1S(=O)(=O)N1CCN(c2nc(Nc3ccc(C(=O)NS(=O)(=O)C4(CN(C)C)CC4)cc3)nc(OCC(F)(F)F)n2)CC1 [Example 8034] | 1000 to 5000 nM | 23000 nM
COc1ccc(S(=O)(=O)N2CCN(c3nc(Nc4ccc(C(=O)NS(=O)(=O)C5(CN(C)C)CC5)cc4)nc(OCC(F)(F)F)n3)CC2)cc1 [Example 8035] | 1000 to 5000 nM | 
CN(C)CC1(S(=O)(=O)NC(=O)c2ccc(Nc3nc(OCC(F)(F)F)nc(N4CCN(S(=O)(=O)c5cccc(F)c5)CC4)n3)cc2)CC1 [Example 8036] | 1000 to 5000 nM | 
Cc1cccc(C(=O)N2CCN(c3nc(Nc4ccc(C(=O)NS(=O)(=O)C5(CN(C)C)CC5)cc4)nc(OCC(F)(F)F)n3)CC2)c1 [Example 8038] | 1000 to 5000 nM | 
Cc1ccccc1C(=O)N1CCN(c2nc(Nc3ccc(C(=O)NS(=O)(=O)C4(CN(C)C)CC4)cc3)nc(OCC(F)(F)F)n2)CC1 [Example 8040] | 1000 to 5000 nM | 
COc1ccc(C(=O)N2CCN(c3nc(Nc4ccc(C(=O)NS(=O)(=O)C5(CN(C)C)CC5)cc4)nc(OCC(F)(F)F)n3)CC2)cc1 [Example 8041] | 1000 to 5000 nM | 
CC(C)(C)OC(=O)NCCS(=O)(=O)NC(=O)c1ccc(Nc2nc(NC3(c4ccc(Cl)cn4)CC3)nc(OCC(F)(F)F)n2)cc1 [Example 8042] | 0.5 to 100 nM | 
